Active and inactive are the calls of the source. The calls are words filed in the database; no cut-off is given here.
Assays:
[1] = tested on: Leishmania donovani; assay: Antiproliferative activity against Leishmania donovani DI700 promastigotes in presence of 100 uM putrescine; format: functional, organism-based
[2] = tested on: Leishmania donovani; assay: Antiproliferative activity against Leishmania donovani DI700 promastigotes overproducing ADOMETDC enzyme; format: functional, organism-based
[3] = tested on: Leishmania donovani; assay: Antiproliferative activity against Leishmania donovani DI700 promastigotes; format: functional, organism-based
[4] = tested on: Leishmania donovani; assay: Antiproliferative activity against Leishmania donovani DI700 promastigotes in presence of 100 uM spermidine; format: functional, organism-based
[5] = tested on: Leishmania donovani; assay: Antiproliferative activity against Leishmania donovani DI700 promastigotes overproducing ODC enzyme; format: functional, organism-based
[6] = tested on: Leishmania donovani; assay: Antiproliferative activity against Leishmania donovani DI700 promastigotes overproducing SPDSYN enzyme; format: functional, organism-based
[7] = tested on: Leishmania donovani; assay: Growth of Leishmania donovani DI700 promastigotes at 100 uM relative to control

SMILES | EC50 [1] [µM] | EC50 [2] [µM] | EC50 [3] [µM] | EC50 [4] [µM] | EC50 [5] [µM] | EC50 [6] [µM] | growth, % of control at 100 µM [7] [%] | Activity [3]
CCCCN [BUTYLAMINE] | 2000 | 200 | 400 | > 10000 | 2100 | 3300 | – | –
CCNCCCCNCCCCNCCCCNCCCCNCCCCNCCCCNCCCCNCCCCNCCCCN(CC)C(=O)CCC1=C(C)c2cc3[nH]c(cc4nc(cc5[nH]c(cc1n2)c(CCC(=O)N(CC)CCCCNCCCCNCCCCNCCCCNCCCCNCCCCNCCCCNCCCCNCCCCNCC)c5C)C(CC)=C4C)c(CC)c3C | – | – | 0.5 | – | – | – | 2.2 | –
CCNCCCCNCCCCNCCCCNCCCCNCCCCNCCCCNCCCCNCCCCNCCCCNCCCCNCCCCNCCCCNCCCCNCC | – | – | 9 | – | – | – | 8.9 | –
CN(C/C=C\CN)C[C@H]1O[C@@H](n2cnc3c(N)ncnc32)[C@H](O)[C@@H]1O | 800 | > 10000 | 40 | > 10000 | 2700 | 200 | – | –
CCNC/C=C\CNCCCCNC/C=C\CNCC | – | – | – | – | – | – | 128 | inactive
CCNCCCCNCCCCNCCCCNCCCCNC/C=C/CNCCCCNCCCCNCCCCNCCCCNCC | – | – | – | – | – | – | 62.4 | inactive
CCNCCCCNCC1CC1CNCCCCN(CC)C(=O)CCC1=C(C)c2cc3[nH]c(cc4nc(cc5[nH]c(cc1n2)c(CCC(=O)N(CC)CCCCNCC1CC1CNCCCCNCC)c5C)C(CC)=C4C)c(CC)c3C (stereo not given) | – | – | – | – | – | – | 1.3 | inactive
NCCC[C@](N)(C(=O)O)C(F)F [EFLORNITHINE, (S)-] | > 1000 | 30 | 40 | 130 | > 1000 | 40 | – | –
CCNCCCCNCCCCNCCCCNCCCCNCCCCNCCCCNCCCCNCCCCNCCCCNCCCCNCCCCNCC | – | – | 0.4 | – | 5.5 | 0.5 | 8.4 | –
CCNCCCCNCCCCNCCCCNC/C=C\CNCCCCNCCCCNCCCCNCC | – | – | – | – | – | – | 97.2 | inactive
CCNC/C=C\CNCCCCNCCCCNCCCCNCC | – | – | – | – | – | – | 83.2 | inactive
CCNCCCCNCC1CC1CNCCCCNCC1CC1CNCCCCNCC (stereo not given) | – | – | – | – | – | – | 118 | inactive
CCNCCCCNCCCCNCCCCNCCCCNCC1CC1CNCCCCNCCCCNCCCCNCCCCNCC (stereo not given) | – | – | – | – | – | – | 73 | inactive
CCNCCCCNCCCCNCCCCNCCCCN(CC)CCCCNCCCCNCCCCNCCCCNCC | – | – | – | – | – | – | 102 | inactive
CCNCCCCNC/C=C\CNCCCCNCCCCNCC | – | – | – | – | – | – | 96.2 | inactive
CCNCCCCNCCCCNCCCCNCCCCNCCCCNCCCCNCCCCNCC | – | – | – | – | – | – | 99.2 | inactive

SMILES | EC50 [1] [µM] | EC50 [2] [µM] | EC50 [3] [µM] | EC50 [4] [µM] | EC50 [5] [µM] | EC50 [6] [µM] | growth, % of control at 100 µM [7] [%] | Activity [3]
CCCCCCCCCCCCCC1CCN(CCCNC(=O)CCC2=C(C)c3cc4[nH]c(cc5nc(cc6[nH]c(cc2n3)c(CCC(=O)NCCCN2CCCN(C)CCCCN(C)CCCN(C)C(CCCCCCCCCCCCC)CC2)c6C)C(CC)=C5C)c(CC)c4C)CCCN(C)CCCCN(C)CCCN1C (stereo not given) | – | – | 50 | – | – | – | 1.7 | –
CCNC/C=C\CNC/C=C\CNC/C=C\CNCC | – | – | – | – | – | – | 104 | inactive
CCNCCCCNCCCCNCCCCNCCCCNCCCCNCCCCNCCCCNCCCCNCCCCN(CC)C(=O)CCC1=C(C)c2cc3[nH]c(cc4nc(cc5[nH]c(cc1n2)c(CCC(=O)N(CC)CCCCNCCCCNCCCCNCCCCNCCCCNCCCCNCCCCNCCCCNCCCCNCC)c5C)C(S(=O)(=O)O)=C4C)c(S(=O)(=O)O)c3C | – | – | 0.7 | – | – | – | 1.1 | –
CCNCCCCNCCCCNCCCCNC/C=C/CNCCCCNCCCCNCCCCNCC | – | – | – | – | – | – | 85.5 | inactive
CCNCCCCNCC1CC1CNCCCCNCC (stereo not given) | – | – | – | – | – | – | 81.4 | inactive
CCNCCCNCC1CC1CNCCCNCC (stereo not given) | – | – | – | – | – | – | 106 | inactive
N=C(N)c1ccc(/N=N/Nc2ccc(C(=N)N)cc2)cc1 [DIMINAZENE] | 6.1 | 9.7 | 9.5 | 9.7 | 8.7 | 8 | – | –
N=C(N)c1ccc(OCCCCCOc2ccc(C(=N)N)cc2)cc1 [PENTAMIDINE] | 1.9 | 1.7 | 1.9 | 2 | 2.6 | 1.7 | – | –
CCNCCCCNCCCCNCCCCNCCCCNC/C=C\CNCCCCNCCCCNCCCCNCCCCNCC | – | – | – | – | – | – | 25.7 | inactive
CCNCCCCNCC1CCC1CNCCCCNCC (stereo not given) | – | – | – | – | – | – | 92.8 | inactive
CCNCCCCNCCCCNCCCCNCCCCNCCCCNC/C=C/CNCCCCNCCCCNCCCCNCCCCNCCCCNCC | – | – | – | – | – | – | 7.5 | inactive
CCCCCCCCCCCCCC1CCN(CCCN)CCCN(C)CCCCN(C)CCCCN1C (stereo not given) | – | – | – | – | – | – | 98.3 | inactive
CC(/C=N/NC(=N)N)=N\NC(=N)N [MITOGUAZONE] | 2600 | 1500 | 1800 | 1800 | 2200 | 1400 | – | –
CCNCCCCNCCCCNCCCCNCCCCNCCCCNCCCCNC/C=C/CNCCCCNCCCCNCCCCNCCCCNCCCCNCCCCNCC | – | – | 6.5 | – | – | – | 7.9 | –
CCNCCCCNCCCCNCCCCNCCCCNCCCCNCCCCNCCCCNCCCCNCCCCNCC | – | – | 9 | – | 9 | 50 | 62.6 | –
